Measurements as given in paper PMC10079954, “Rational design of phase separating peptides based on phase separating protein sequence of p53” (Scientific Reports, 2023).

Assays:
[1] = Cross-β structure detection with amyloid-sensitive probe Picogreen; format: physicochemical
Description: Differential interference contrast (DIC) microscopy confirmed that these peptides (0.9–1.8 mM) underwent phase separation in 25 mM HEPES and 0.5 mM EDTA at pH 7.0 (Fig. 2B). To prevent the melting of clusters on the coverslip surface, 2-methacryloyloxyethyl phosphorylcholine (MPC) polymer coating was used[36],[37] (Supplementary Fig. S1). Samples were prepared by sonicating a 2 mM peptide solution or diluting the peptide solution from a 10 mM peptide stock after storage under freezing conditions. Four of the designed peptides, except DPp53N-GSGS-DPp53C2, formed μm-sized spherical clusters. Fluorescence microscopy confirmed the high concentration of peptides labeled with the fluorescent dye Alexa488 in the clusters (Fig. 2B). […] Cross-β structure was also supported by the observation of intrinsic fluorescence upon 400–440 nm excitation[40] (Supplementary Fig. S2). Clusters of aromatic W residues in DPp53N-GSGS-DPp53C2 may lead to the formation of solid aggregates, which is consistent with the results of different systems[21],[34].
The DIC and fluorescence modes of an inverted microscope (IX-73; Olympus, Tokyo, Japan) equipped with microscopic objectives (60 × and 10 ×) and a camera (DP74) were used, as described previously. We used the solution containing 0.9–1.8 mM designed peptide, 0.1 μM Alexa488-labeled peptide, 25 mM HEPES, and 0.5 mM EDTA at pH 7.0. To detect the cross-β structure, picogreen was added at 25 µM for DPp53N-GSGS-DPp53C2 or 2.5 µM for others instead of the Alexa488-labeled peptide. […] DIC and fluorescence images were obtained at 20 or 22 °C. For intrinsic fluorescence measurements, the excitation and detection wavelengths were 440–440 nm and larger than 460 nm, respectively.
Fig. S8 Time course of cross-β structure formation of designed peptides in droplets monitored by DIC and fluorescence images. The fluorescence was detected corresponding to the amyloid marker Picogreen at 2.5 µM in a solution containing 0.9 mM designed peptides, 25 mM HEPES, and 0.5 mM EDTA at pH 7.0 and 22 °C.

[2] = test system: p53 monomer (L344P) mutant; assay: Recruitment (enrichment index) of p53 monomer into designed peptide droplets; design: species or system human; conditions: (GGGS)3-linker versus GSGS-linker droplets; no salt, pH 7.0
Excerpt: We prepared p53 tetramer, dimer, and monomer mutants, as described previously[8],[37],[50]. For the p53 tetramer, a thermostable and cysteine-modified human p53 mutant (C124A, C135V, C141V, W146Y, C182S, V203A, R209P, C229Y, H233Y, Y234F, N235K, Y236F, T253V, N268D, C275A, C277A, and K292C) was used[50]. The dimer and monomer mutants of p53 corresponded to L344A and L344P of the tetramer sequence, respectively[8],[37]. These p53 mutants were expressed with a glutathione S-transferase (GST) tag in E. coli and purified after cleavage of the GST tag, as described previously[50],[51]. The oligomeric state of p53 mutants was confirmed using a gel filtration column (Superdex 200; GE Healthcare). p53 mutants were labeled with Atto488 (ATTO-TEC) or Alexa488 (Thermo Fisher) using maleimide chemistry and then purified using a heparin column (GE Healthcare). We prepared Alexa488-labeled FUS-MBP as described previously[37],[39].
Recruitment evaluations were performed following the method described in our previous studies[37],[41]. Solutions containing 0.9–1.8 mM designed peptides, 0.1 µM Alexa488-labeled p53 mutants or Alexa488, 25 mM HEPES, 0.5 mM EDTA, and 1 mM DTT at pH 7.0 were used. The solutions were then incubated at 22 °C for five minutes. The aforementioned microscope was used with HILO illumination. To prevent photo-bleaching of the fluorescent samples, we used a laser power of 0.15 mW. The images were acquired at 22 °C. Using the ImageJ software, we calculated the EI values of the individual droplets as follows:2 EI=Idroplet/Isolution, where Idroplet and Isolution represent the average fluorescence intensities of the individual droplets and solutions near the droplets with background substitution, respectively.

Question: Which “Picogreen fluorescence intensity in droplets versus solution” value ([1]; Picogreen 2.5 µM, 0.9 mM designed peptide, 25 mM HEPES, 0.5 mM EDTA, pH 7.0, 22 °C) does the source give for “RRRVVQRRRRGGGSGGGSGGGSDDDASQEDDD [DPp53N-(GGGS)3-DPp53C1]” here?
Answer: higher than that in the solution

Question: And the “Cross-β structure and state of droplets after long-term incubation” value ([1]; long-term incubation)?
Answer: gel-like assemblies of the droplets

Question: And the “Decrease of average EI of p53 monomer mutant compared to the GSGS-linker peptide” value [2]?
Answer: 1.2 fold
